Experimental data reported in patent US6596763B1, “Topical formulations containing as a therapeutic active agent fatty acids or fatty alcohols or monoglyceride derivatives thereof for treating of mucosa infections” (priority 1996, dated 2003).

Legend:
HIV-2 = settings: 25 mM, human plasma, 30 min; cited from earlier work
HIV-1 = settings: 25 mM, human plasma, 30 min; cited from earlier work
HSV-1 [1] = assay: Virucidal activity against HSV-1 in culture medium (MM); assay type: cell-based, Herpes simplex virus type 1; settings: room temperature, 1 minute
C. trachomatis = assay: Inactivation of C. trachomatis; settings: 37° C., 10 minutes
HSV-1 [2] = assay: Virucidal activity against HSV-1 in human semen; settings: room temperature, 1 minute
Enveloped viruses = settings: virucidal activity in cell culture media; cited from earlier work
VV = assay: Virucidal activity against visna virus (VV) in culture medium (MM); assay type: cell-based; settings: room temperature, 1 minute
Protocol: The lipids were dissolved in ethanol at a concentration of 1 M and stored at 4° C. In each experiment they were suspended in MM by vortexing at the highest speed for 1 min.

[3] = test system: vaginal mucosa of rabbits; settings: rabbit, in vivo

**Q.** With `CCCCCCCCOC[C@@H](O)CO` [1-0-Octyl-SN-glycerol] as the compound, how does the “inactivated HIV-2” value (HIV-2) read?
**A.** more than 10^9 fold

**Q.** And the “inactivated HIV-1” value (HIV-1)?
**A.** more than 10^9 fold

**Q.** With `CCCCCCCCCC(=O)O` [Capric acid, capric acid] as the compound, how does the “Reduction of virus titer,log10 HSV-1” value (HSV-1 [1]; lipid 20 mM in MM) read?
**A.** <0.5 log10

**Q.** What does the source list for `CCCCCCCC(=O)OCC(O)CO` (stereo not shown) [Caprylic acid 1-monoglyceride, caprylic acid 1-monoglyceride]?
**A.** Reduction of virus titer,log10 HSV-1 (HSV-1 [1]; lipid 10 mM in MM): 0 log10; Reduction of virus titer,log10 HSV-1 (HSV-1 [1]; lipid 20 mM in MM): 0.5 log10; Reduction of IFU (log10) (C. trachomatis; monoglyceride 5 mM in medium): 0.1 log10; Reduction of IFU (log10) (C. trachomatis; monoglyceride 10 mM in medium): 0.3 log10; Reduction of IFU (log10) (C. trachomatis; monoglyceride 20 mM in medium): 0.2 log10; Reduction of HSV-1 titer, log10 (HSV-1 [2]; monoglyceride 20 mM): 1.0 log10

**Q.** What does the source list for `CCCCCCCCCCCC(=O)OCC(O)CO` (stereo not shown) [Lauric acid 1-monoglyceride, lauric acid 1-monoglyceride]?
**A.** Reduction of virus titer,log10 HSV-1 (HSV-1 [1]; lipid 5 mM in MM): 3.0 log10; Reduction of virus titer,log10 HSV-1 (HSV-1 [1]; lipid 10 mM in MM): 3.5 log10; Reduction of virus titer,log10 HSV-1 (HSV-1 [1]; lipid 20 mM in MM): 3.1 log10; more active than the corresponding free fatty acid (capric and lauric acids) (Enveloped viruses): 10 fold; Reduction of IFU (log10) (C. trachomatis; monoglyceride 5 mM in medium): 0.5 log10; Reduction of IFU (log10) (C. trachomatis; monoglyceride 10 mM in medium): 0.7 log10; Reduction of IFU (log10) (C. trachomatis; monoglyceride 20 mM in medium): 0.5 log10; Reduction of HSV-1 titer, log10 (HSV-1 [2]; monoglyceride 20 mM): 2.0 log10

**Q.** For `CCCCCCCCCCCC(=O)O` [Lauric acid, lauric acid], which “Reduction of virus titer,log10 HSV-1” value (HSV-1 [1]; lipid 10 mM in MM) is on record?
**A.** <1.5 log10

**Q.** What about the “Reduction of virus titer,log10 HSV-1” value (HSV-1 [1]; lipid 20 mM in MM) of the same compound?
**A.** >5.8 log10

**Q.** Which results are given for `CCCCCCCCCC(=O)OCC(O)CO` (stereo not shown) [Monocaprin, capric acid 1-monoglyceride]?
**A.** Reduction of virus titer,log10 HSV-1 (HSV-1 [1]; lipid 2.5 mM in MM): 2.2 log10; Reduction of virus titer,log10 HSV-1 (HSV-1 [1]; lipid 5 mM in MM): >5.5 log10; Reduction of virus titer,log10 HSV-1 (HSV-1 [1]; lipid 10 mM in MM): >5.3 log10; Reduction of virus titer,log10 HSV-1 (HSV-1 [1]; lipid 20 mM in MM): >5.8 log10; Reduction of virus titer,log10 VV (VV; lipid 10 mM in MM): 2.4 log10; Reduction of virus titer,log10 VV (VV; lipid 20 mM in MM): 3.8 log10; more active than the corresponding free fatty acid (capric and lauric acids) (Enveloped viruses): 10 fold; Reduction of IFU (log10) (C. trachomatis; monoglyceride 5 mM in medium): >5.6 log10; Reduction of IFU (log10) (C. trachomatis; monoglyceride 10 mM in medium): >5.6 log10; Reduction of IFU (log10) (C. trachomatis; monoglyceride 20 mM in medium): >4.6 log10; Reduction of HSV-1 titer, log10 (HSV-1 [2]; monoglyceride 10 mM): 3.0 log10; Reduction of HSV-1 titer, log10 (HSV-1 [2]; monoglyceride 20 mM): >4.0 log10

**Q.** Which “Reduction of virus titer,log10 HSV-1” value (HSV-1 [1]; lipid 10 mM in MM) does the source give for `CCCCCCCCCCCCCC(=O)O` [Myristic acid, myristic acid] here?
**A.** 0 log10

**Q.** What about the “Reduction of virus titer,log10 HSV-1” value (HSV-1 [1]; lipid 20 mM in MM) of the same compound?
**A.** 0 log10

**Q.** What does the source list for `CCCCCCCC/C=C\CCCCCCCC(=O)OCC(O)CO` (stereo not shown) [Oleic acid 1-monoglyceride, oleic acid 1-monoglyceride]?
**A.** Reduction of virus titer,log10 HSV-1 (HSV-1 [1]; lipid 10 mM in MM): <1.0 log10; Reduction of virus titer,log10 HSV-1 (HSV-1 [1]; lipid 20 mM in MM): <1.0 log10

**Q.** Which “Reduction of virus titer,log10 HSV-1” value (HSV-1 [1]; lipid 10 mM in MM) does the source give for `CCCCCCCC/C=C\CCCCCCCC(=O)O` [Oleic acid, oleic acid] here?
**A.** <1.0 log10

**Q.** And the “Reduction of virus titer,log10 HSV-1” value (HSV-1 [1]; lipid 20 mM in MM)?
**A.** <1.0 log10

**Q.** Which “Reduction of virus titer,log10 HSV-1” value (HSV-1 [1]; lipid 10 mM in MM) does the source give for `CCCCCC/C=C\CCCCCCCC(=O)OCC(O)CO` (stereo not shown) [Palmitoleic acid 1-monoglyceride, palmitoleic acid 1-monoglyceride] here?
**A.** 0 log10

**Q.** What about the “Reduction of virus titer,log10 HSV-1” value (HSV-1 [1]; lipid 20 mM in MM) of the same compound?
**A.** 0 log10

**Q.** What about the “Reduction of virus titer,log10 VV” value (VV; lipid 10 mM in MM) of the same compound?
**A.** 0.7 log10

**Q.** Which “Reduction of virus titer,log10 HSV-1” value (HSV-1 [1]; lipid 5 mM in MM) does the source give for `CCCCCC/C=C\CCCCCCCC(=O)O` [Palmitoleic acid, palmitoleic acid] here?
**A.** <1.0 log10

**Q.** And the “Reduction of virus titer,log10 HSV-1” value (HSV-1 [1]; lipid 10 mM in MM)?
**A.** >5.0 log10

**Q.** With `CC(O)CO` (stereo not shown) [propylene glycol] as the compound, how does the “effects in the vaginal mucosa of rabbits (in words)” value [3] read?
**A.** toxic effects
